Patent publication US9695155B2, “Herbicidal substituted pyrimidinyloxy benzene compounds” (E. I. DU PONT DE NEMOURS AND COMPANY, priority 2013, dated 2017)

Assays:
barnyardgrass [1] = experiment: Test A preemergence; format: in vivo, Echinochloa crus-galli; settings: for Barnyardgrass plant response rating (0 to 100 scale, 0 is no effect, 100 is complete control): 125 g ai/ha; for Barnyardgrass plant response rating: 500 g ai/ha, 0 to 100 scale where 0 is no effect and 100 is complete control
Method in brief: (§1)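 Compounds in non-phytotoxic solvent with surfactant applied as soil spray preemergence, or postemergence to plants 2-10 cm at one- to two-leaf stage, in loam/sand. After approximately 10 days in greenhouse, injury rated visually versus untreated controls, 0 (no effect) to 100 (complete control).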

pigweed [2] = experiment: Test A preemergence; format: in vivo, Amaranthus retroflexus; settings: for Pigweed plant response rating (0 to 100 scale): 125 g ai/ha; for Pigweed plant response rating: 500 g ai/ha, 0 to 100 scale where 0 is no effect and 100 is complete control
Method in brief: as §1

wheat [3] = experiment: Test A preemergence; format: in vivo, Triticum aestivum; settings: for Wheat plant response rating (0 to 100 scale): 125 g ai/ha; for Wheat plant response rating: 500 g ai/ha, 0 to 100 scale where 0 is no effect and 100 is complete control
Method in brief: as §1

corn [4] = experiment: Test A preemergence; format: in vivo, Zea mays; settings: for Corn plant response rating (0 to 100 scale): 125 g ai/ha; for Corn plant response rating: 500 g ai/ha, 0 to 100 scale where 0 is no effect and 100 is complete control
Method in brief: as §1

barnyardgrass [5] = experiment: Test A postemergence; format: in vivo, Echinochloa crus-galli; settings: 0 to 100 scale where 0 is no effect and 100 is complete control; for Barnyardgrass plant response rating: 125 g ai/ha; for Plant response rating, Barnyardgrass: 500 g ai/ha
Method in brief: as §1

giant foxtail = experiment: Test A postemergence; format: in vivo, Setaria faberii; settings: 0 to 100 scale where 0 is no effect and 100 is complete control; for Foxtail, Giant plant response rating: 125 g ai/ha; for Plant response rating, Foxtail, Giant: 500 g ai/ha
Method in brief: as §1

pigweed [6] = experiment: Test A postemergence; format: in vivo, Amaranthus retroflexus; settings: 0 to 100 scale where 0 is no effect and 100 is complete control; for Pigweed plant response rating: 125 g ai/ha; for Plant response rating, Pigweed: 500 g ai/ha
Method in brief: as §1

wheat [7] = experiment: Test A postemergence; format: in vivo, Triticum aestivum; settings: 0 to 100 scale where 0 is no effect and 100 is complete control; for Wheat plant response rating: 125 g ai/ha; for Plant response rating, Wheat: 500 g ai/ha
Method in brief: as §1

corn [8] = experiment: Test A postemergence; format: in vivo, Zea mays; settings: 0 to 100 scale where 0 is no effect and 100 is complete control; for Corn plant response rating: 125 g ai/ha; for Plant response rating, Corn: 500 g ai/ha
Method in brief: as §1

rice = experiment: Test B flooded paddy test; format: in vivo, Oryza sativa; settings: Flood, 250 g ai/ha; 0 to 100 scale where 0 is no effect and 100 is complete control
Method in brief: (§2)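 Seedlings are raised to two leaves, flooded to a depth of 3 cm and dosed by adding the compound to the floodwater. Water level is kept constant, and plants are scored visually versus controls 13–15 days later (0 = no effect, 100 = complete control).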

sedge, umbrella = experiment: Test B flooded paddy test; format: in vivo, Cyperus difformis; settings: Flood, 250 g ai/ha; 0 to 100 scale where 0 is no effect and 100 is complete control
Method in brief: as §2

Heteranthera limosa = experiment: Test B flooded paddy test; format: in vivo; settings: Flood, 250 g ai/ha; 0 to 100 scale where 0 is no effect and 100 is complete control
Method in brief: as §2

galium = experiment: Test C postemergence; format: in vivo, Galium aparine; settings: for Plant response rating (0 to 100), Galium: 16 g ai/ha, 0 is no effect, 100 is complete control; for Galium plant response rating: 31 g ai/ha, 13 to 15 days; for Galium plant response rating / Plant response rating, Galium: scale 0 to 100 (0 no effect, 100 complete control)
Method in brief: (§3)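 Seeds are planted in blended loam soil and sand and treated preemergence, while seedlings in a peat moss/vermiculite medium receive postemergence sprays at 2 to 18 cm height. All plants stay in the greenhouse for 13 to 15 days before visual comparison with controls on a 0–100 scale.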

pigweed [9] = experiment: Test C postemergence; format: in vivo, Amaranthus retroflexus; settings: for Plant response rating (0 to 100), Pigweed: 16 g ai/ha, 0 is no effect, 100 is complete control; for Pigweed plant response rating: 31 g ai/ha, 13 to 15 days; for Pigweed plant response rating / Plant response rating, Pigweed: scale 0 to 100 (0 no effect, 100 complete control)
Method in brief: as §3

barnyardgrass [10] = experiment: Test C postemergence; format: in vivo, Echinochloa crus-galli; settings: for Plant response rating (0 to 100), Barnyardgrass: 16 g ai/ha, 0 is no effect, 100 is complete control; for Barnyardgrass plant response rating: 31 g ai/ha, 13 to 15 days; for Barnyardgrass plant response rating / Plant response rating, Barnyardgrass: scale 0 to 100 (0 no effect, 100 complete control)
Method in brief: as §3

kochia = experiment: Test C postemergence; format: in vivo, Kochia scoparia; settings: for Plant response rating (0 to 100), Kochia: 16 g ai/ha, 0 is no effect, 100 is complete control; for Kochia plant response rating: 31 g ai/ha, 13 to 15 days; for Kochia plant response rating / Plant response rating, Kochia: scale 0 to 100 (0 no effect, 100 complete control)
Method in brief: as §3

velvetleaf = experiment: Test C postemergence; format: in vivo, Abutilon theophrasti; settings: for Plant response rating (0 to 100), Velvetleaf: 16 g ai/ha, 0 is no effect, 100 is complete control; for Velvetleaf plant response rating: 31 g ai/ha, 13 to 15 days; for Velvetleaf plant response rating / Plant response rating, Velvetleaf: scale 0 to 100 (0 no effect, 100 complete control)
Method in brief: as §3

[11] = 125 g ai/ha, postemergence, visual rating

Clc1cnc(Oc2cccc(Cl)c2-n2cc(I)cn2)nc1 [Compound 181]
Barnyardgrass plant response rating (0 to 100 scale, 0 is no effect, 100 is complete control) (barnyardgrass [1]): 50
Barnyardgrass plant response rating (barnyardgrass [1]): 100
Pigweed plant response rating (0 to 100 scale) (pigweed [2]): 100
Pigweed plant response rating (pigweed [2]): 100
Wheat plant response rating (0 to 100 scale) (wheat [3]): 0
Wheat plant response rating (wheat [3]): 10
Corn plant response rating (0 to 100 scale) (corn [4]): 0
Corn plant response rating (corn [4]): 30
Barnyardgrass plant response rating (barnyardgrass [5]): 60
Plant response rating, Barnyardgrass (barnyardgrass [5]): 90
Foxtail, Giant plant response rating (giant foxtail): 70
Plant response rating, Foxtail, Giant (giant foxtail): 90
Pigweed plant response rating (pigweed [6]): 100
Plant response rating, Pigweed (pigweed [6]): 100
Wheat plant response rating (wheat [7]): 0
Plant response rating, Wheat (wheat [7]): 30
Corn plant response rating (corn [8]): 40
Plant response rating, Corn (corn [8]): 40
Plant response rating, Rice (rice): 0
Plant response rating, Sedge, Umbrella (sedge, umbrella): 85
Plant response rating, Ducksalad (Heteranthera limosa): 75
Plant response rating (0 to 100), Galium (galium; postemergence): 60
Galium plant response rating (galium; postemergence, visual rating): 65
Plant response rating, Galium (galium; [11]): 80
Plant response rating, Galium (galium; Postemergence, 62 g ai/ha): 70
Plant response rating (0 to 100), Pigweed (pigweed [9]; postemergence): 85
Pigweed plant response rating (pigweed [9]; postemergence, visual rating): 98
Plant response rating, Pigweed (pigweed [9]; [11]): 98
Plant response rating, Pigweed (pigweed [9]; Postemergence, 62 g ai/ha): 85
Plant response rating (0 to 100), Barnyardgrass (barnyardgrass [10]; postemergence): 5
Barnyardgrass plant response rating (barnyardgrass [10]; postemergence, visual rating): 5
Plant response rating, Barnyardgrass (barnyardgrass [10]; [11]): 10
Plant response rating, Barnyardgrass (barnyardgrass [10]; Postemergence, 62 g ai/ha): 10
Plant response rating (0 to 100), Kochia (kochia; postemergence): 70
Kochia plant response rating (kochia; postemergence, visual rating): 100
Plant response rating, Kochia (kochia; [11]): 100
Plant response rating, Kochia (kochia; Postemergence, 62 g ai/ha): 100
Plant response rating (0 to 100), Velvetleaf (velvetleaf; postemergence): 25
Velvetleaf plant response rating (velvetleaf; postemergence, visual rating): 20
Plant response rating, Velvetleaf (velvetleaf; [11]): 70
Plant response rating, Velvetleaf (velvetleaf; Postemergence, 62 g ai/ha): 40

FC(F)(F)c1cnn(-c2c(Br)cccc2Oc2ncc(Cl)cn2)c1 [Compound 191]
Barnyardgrass plant response rating (0 to 100 scale, 0 is no effect, 100 is complete control) (barnyardgrass [1]): 70
Barnyardgrass plant response rating (barnyardgrass [1]): 100
Pigweed plant response rating (0 to 100 scale) (pigweed [2]): 100
Pigweed plant response rating (pigweed [2]): 100
Wheat plant response rating (0 to 100 scale) (wheat [3]): 20
Wheat plant response rating (wheat [3]): 40
Corn plant response rating (0 to 100 scale) (corn [4]): 0
Corn plant response rating (corn [4]): 30
Barnyardgrass plant response rating (barnyardgrass [5]): 50
Plant response rating, Barnyardgrass (barnyardgrass [5]): 90
Foxtail, Giant plant response rating (giant foxtail): 50
Plant response rating, Foxtail, Giant (giant foxtail): 90
Pigweed plant response rating (pigweed [6]): 100
Plant response rating, Pigweed (pigweed [6]): 100
Wheat plant response rating (wheat [7]): 20
Plant response rating, Wheat (wheat [7]): 40
Corn plant response rating (corn [8]): 20
Plant response rating, Corn (corn [8]): 40
Plant response rating, Rice (rice): 0
Plant response rating, Sedge, Umbrella (sedge, umbrella): 95
Plant response rating, Ducksalad (Heteranthera limosa): 95
Plant response rating (0 to 100), Galium (galium; postemergence): 80
Galium plant response rating (galium; postemergence, visual rating): 80
Plant response rating, Galium (galium; [11]): 98
Plant response rating, Galium (galium; Postemergence, 62 g ai/ha): 98
Plant response rating (0 to 100), Pigweed (pigweed [9]; postemergence): 95
Pigweed plant response rating (pigweed [9]; postemergence, visual rating): 85
Plant response rating, Pigweed (pigweed [9]; [11]): 98
Plant response rating, Pigweed (pigweed [9]; Postemergence, 62 g ai/ha): 95
Plant response rating (0 to 100), Barnyardgrass (barnyardgrass [10]; postemergence): 10
Barnyardgrass plant response rating (barnyardgrass [10]; postemergence, visual rating): 10
Plant response rating, Barnyardgrass (barnyardgrass [10]; [11]): 15
Plant response rating, Barnyardgrass (barnyardgrass [10]; Postemergence, 62 g ai/ha): 15
Plant response rating (0 to 100), Kochia (kochia; postemergence): 85
Kochia plant response rating (kochia; postemergence, visual rating): 95
Plant response rating, Kochia (kochia; [11]): 100
Plant response rating, Kochia (kochia; Postemergence, 62 g ai/ha): 98
Plant response rating (0 to 100), Velvetleaf (velvetleaf; postemergence): 50
Velvetleaf plant response rating (velvetleaf; postemergence, visual rating): 65
Plant response rating, Velvetleaf (velvetleaf; [11]): 65
Plant response rating, Velvetleaf (velvetleaf; Postemergence, 62 g ai/ha): 75
